# Laboratory results published in patent publication US7455859B2, “Highly concentrated bromine compositions and methods of preparation” (Enviro Tech Chemical Services, Inc., priority 2003, dated 2008).
# “Also recorded” adds a separate entry of the source.
# How the values were obtained:
# [1] = Storage stability of anhydrous N-bromosulfamate sodium salt in vacuum dessicator (Example 24); assay type: physicochemical; details: three months of storage at room temperature in vacuum dessicator
# Experimental: A further portion of the towel dried crystals from Example 17 was dehydrated by placing in a vacuum dessicator containing molecular sieves. After 15 days, a loss of 31% of the original weight was determined. Although the crystals lost their glass-like appearance, the rhomobohedral shape was retained.
# The sodium salt of anhydrous N-bromosulfamate was placed back in the vacuum dessicator.
# [2] = cited from earlier work
# [3] = Dissolution of crystalline bromine-containing solid in water; assay type: physicochemical; details: crystalline solid dissolved in water
# From the text: The resulting slurry was stirred as solid sodium hydroxide pellets were charged to the reaction flask. […] As the reaction proceeded, a fine powdery precipitate developed which was removed by vacuum filtration. […] Iodometric titration of the resulting golden yellow solution was used to determine its Br2 content of 27.2% (or 12.1% as Cl2). Within a few minutes, this highly concentrated bromine solution started to turn turbid as crystals began to form. The crystallizing solution was chilled in an ice bath to expedite the development of the crystals. A large crop of yellow crystalline material was separated by vacuum filtration, and the mother liquors were retitrated iodometrically. […] There were no insoluble residues. Iodometric titration of resulting solutions was used to calculate that the crystalline solid contained 29.9% Br2 (13.1% as Cl2).
# To a stirred reaction flask containing 40% sodium bromide solution was added solid sulfamic acid (82.3 g). The resultant slurry was stirred as 50% sodium hydroxide (60.2 g) was introduced. […] However, the reaction medium became very viscous, and this hampered the mixing efficiency, so deionized water (35.8 g) was added to thin the mixture. The fine powdery precipitate that developed was removed by vacuum filtration. […] The mother liquors were determined to have a bromine content of 20.9% as Br2 (9.3% as Cl2) by iodometric titration. […]
# [4] = Heating of crystals in ceramic crucible on hot plate (Example 23); assay type: physicochemical; details: towel-dried crystals heated on a hot plate
# From the text: Another large portion of the crystalline mass was dried with a paper towel and placed in a ceramic crucible that was heated on a hot plate.
# [5] = system: Pseudomonas aeruginosa; assay: Biocidal performance, plate counting of viable bacteria (Example 20); assay type: cell-based; details: nominal 0.2 ppm total halogen as Cl2, phosphate buffer pH 8.5, 10 minutes at 35° C.
# From the text: The biocidal performance of the liquid composition of the present invention was compared to a solution of sodium bromide activated using an equimolar amount of sodium hypochlorite bleach, and a solution prepared from 1-bromo-3-chloro-5,5-dimethylhydantoin (BCDMH). Sterile phosphate buffer samples (pH 8.5) were inoculated with Pseudomonas aeruginosa to give a concentration of approximately 5×10^6 bacteria/ml and then challenged with the test systems at a nominal concentration of 0.2 ppm total halogen (as Cl2).
# After a contact time of 10 minutes at 35° C., an aliquot of sodium thiosulfate was added to each sample to neutralize the halogen. The level of viable bacteria in each sample was determined by plate counting. Plates were incubated at 35° C. for 48 hours.
smiles,measurement,setting,value
O=S(=O)([O-])NBr.[Na+] [sodium salt of anhydrous N-bromosulfamate],Loss of activity on storage,[1],not to have lost any activity
O=c1n(Cl)c(=O)n(Cl)c(=O)n1Cl [trichloroisocyanuric acid],Saturated solution in water,[2]; at 25° C.,1.1 % as Cl2
"O=S(=O)([O-])NBr.[Na+] [Example 17, sodium salt of hydrated N-bromosulfamate]",Dissolution in water,[3],dissolved rapidly and completely; also recorded: dissolved quickly and completely
same,"Temperature at which water of crystallization boiled off and product decomposed, evolving bromine vapors",[4],about 221 ° F.
"CC1(C)C(=O)N(Cl)C(=O)N1Br [BCDMH, 1-bromo-3-chloro-5,5-dimethylhydantoin]",Log Reduction in viable bacteria/ml,[5],3.3 Log
same,Viable bacteria/ml after 10 minutes,[5]; inoculum approx. 5×10^6 bacteria/ml,2.5 × 10^3 bacteria/ml
same,Water solubility,[2]; at 20° C.,0.1%
